Where a chain is given by its changes, count along the chain named.
Tests used:
p.Thr237Met mutant = target: T1, p.Thr237Met mutant (Homo sapiens, UniProt O15305, T237M); experiment: DSF thermal stability of purified homodimeric mutant; assay type: binding; details: 80µM of the compound
T1 construct: His6 (N); made in house; host or cells: E. coli BL21 Star DE3
T1 sequence (O15305 1-246 T237M): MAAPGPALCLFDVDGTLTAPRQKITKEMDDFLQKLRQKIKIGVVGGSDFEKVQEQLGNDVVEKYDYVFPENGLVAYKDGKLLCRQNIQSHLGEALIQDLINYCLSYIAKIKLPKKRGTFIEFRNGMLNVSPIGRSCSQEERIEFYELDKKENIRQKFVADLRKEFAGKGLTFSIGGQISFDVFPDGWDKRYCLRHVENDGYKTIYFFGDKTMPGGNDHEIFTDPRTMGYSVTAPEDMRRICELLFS
Protocol: (§1) The effect of Compound A on the stability of different PMM2 folding mutants was studied by DSF. The selected mutants were the folding mutants, p.Val44AIa, p.Asp65Tyr, p.Arg162Trp, p.Thr237Met and p.Cys241Ser and the catalytic and folding mutants, p.Arg123Gln and p.Arg141His as previously described. The effect was studied at 40 µM and 80 µM compound concentration over the thermal stability of the purified homodimeric mutants by DSF.
(§2) In this case, the DSF was performed in a final reaction volume of 50 µl, containing 0.075 mg/ml of pure PMM2 protein in Hepes 20 mM, NaCl 200 mM, SYPRO Orange 5X, 1 µl of the hit compound and 2% DMSO in a LightCycler Multiwell Plate 96 (Roche).

p.Arg123Gln mutant = target: T2, p.Arg123Gln mutant (Homo sapiens, UniProt O15305, R123Q); experiment: as above; assay type: binding; details: at both concentrations (40 µM and 80 µM)
T2 construct: His6 (N); made in house; host or cells: E. coli BL21 Star DE3
T2 sequence (O15305 1-246 R123Q): T1 sequence (O15305 1-246 T237M) with R123Q, M237T
Protocol: as §1, §2

p.Asp65Tyr mutant = target: T3, p.Asp65Tyr mutant (Homo sapiens, UniProt O15305, D65Y); experiment: as above; assay type: binding; details: 80µM of the compound
T3 construct: His6 (N); made in house; host or cells: E. coli BL21 Star DE3
T3 sequence (O15305 1-246 D65Y): T1 sequence (O15305 1-246 T237M) with D65Y, M237T
Protocol: as §1, §2

pure WT-PMM2 = target: T4, pure WT-PMM2 (Homo sapiens, UniProt O15305); experiment: Inhibitory effect (IC50) on pure enzyme, coupled spectrophotometric activity assay; assay type: biochemical; details: 2.5 mM was the maximum concentration used
T4 construct: His6 (N); made in house; host or cells: E. coli BL21 Star DE3
T4 sequence (O15305 1-246): T1 sequence (O15305 1-246 T237M) with M237T
Protocol: Given that the description of most of the described pharmacological chaperones has a competitive inhibitory effect for the target enzyme, we decided to analyze Compound A's IC50.
For the calculation of IC50 values, pure WT-PMM2 was used. Fifty nanograms of Nanodrop-measured pure dimeric PMM2 (molar extinction coefficient 23755 M^-1 cm^-1) were incubated with 1 µl of the compound at different concentrations, along with 0.5% BSA for 10 min at 30°C. After that time, the activity assays were performed by a spectrophotometric method based on the NADPH determination at 340 nm produced by a chain reaction of different coupled enzymes and the final production of […] by Glucose-6P-dehydrogenase enzyme (de Koning et al., 1998; Van Schaftingen y Jaeken, 1995). The corresponding DMSO controls were included in the assay. The IC50 values for the inhibitory compound were calculated using non-linear regression (GraphPad Prism 6 software) by plotting the log concentration of the compound (M) versus WT-PMM2 enzyme activity (%).

Tm compared with WT-PMM2 basal Tm (p.Thr237Met mutant): reached the WT-PMM2 basal Tm
Tm compared with WT-PMM2 basal Tm (p.Arg123Gln mutant): reached the WT-PMM2 basal Tm
Tm compared with WT-PMM2 basal Tm (p.Asp65Tyr mutant): reached the WT-PMM2 basal Tm
inhibitory effect on the activity of the pure WT-PMM2 protein (pure WT-PMM2): no inhibitory effect
Compound: O=C(Nc1cccc(Cl)c1)N(c1ccccn1)c1ccccn1 [Compound A, 3-(3-Chloro-phenyl)-1,1-di-pyridin-2-yl-urea]

From patent EP3275863A1, “COMPOUNDS FOR TREATING CONGENITAL DISORDERS OF GLYCOSYLATION” (Universidad Autónoma de Madrid, priority 2016, dated 2018)
